Experimental data published in article PMC12749166, “Fragment-based drug design of a bacterial kinase inhibitor capable of increasing the antibiotic sensitivity of clinical isolates” (Communications Chemistry, 2025).

Assays:
APH(3’)-IIa = biological target: T1, APH(3’)-IIa (Klebsiella pneumoniae, UniProt P00552); experiment: Isothermal Titration Calorimetry; assay type: binding, K. pneumoniae
T1 construct: His-tag (inferred from HisTrap purification); made in house; host or cells: E. coli BL21
Experimental: ITC experiments were performed on three different machines: a MicroCal VP-ITC (GE Healthcare), a MicroCal PEAQ-ITC (Malvern), or a MicroCal iTC200 (Malvern). The architecture and principles are similar for the three different systems. The experiments were carried out in Buffer HEPES at 25 °C. Titrations consisted of twenty injections of 1.5 µL inhibitors, every 120 seconds, into the measuring cell using the injection syringe rotating at 750 rpm. The data were analyzed using the MicroCal PEAQ-ITC software (v. 1.52, Malvern) using the single-site binding model to fit the raw data. The standard error of the Kd value was determined from measurements made on distinct samples (n indicated in the text).

P. aeruginosa C0307 = experiment: Checkerboard assay of 83 with kanamycin A; assay type: cell-based; conditions: for MIC of kanamycin A: 18 h at 37 °C

T1 sequence (P00552 whole entry): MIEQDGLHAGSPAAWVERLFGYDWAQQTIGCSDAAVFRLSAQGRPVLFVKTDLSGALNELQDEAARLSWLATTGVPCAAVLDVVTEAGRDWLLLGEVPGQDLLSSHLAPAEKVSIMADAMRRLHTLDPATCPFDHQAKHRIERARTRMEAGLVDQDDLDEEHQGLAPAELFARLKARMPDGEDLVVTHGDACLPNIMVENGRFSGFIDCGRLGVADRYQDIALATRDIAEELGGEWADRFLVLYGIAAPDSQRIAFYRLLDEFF

Clc1cnc2[nH]ccc2c1-c1ccn[nH]1 [Compound 83]
Kd (APH(3’)-IIa): 1250 nM
ΔH (APH(3’)-IIa; ITC): -13.1 kcal/mol
MIC of kanamycin A (P. aeruginosa C0307; 0 µg mL^−1 imipenem, [83] 2 µg mL^−1): 64 µg/mL
MIC of kanamycin A (P. aeruginosa C0307; 0 µg mL^−1 imipenem, [83] 4 µg mL^−1): 64 µg/mL
MIC of kanamycin A (P. aeruginosa C0307; 0 µg mL^−1 imipenem, [83] 8 µg mL^−1): 64 µg/mL
MIC of kanamycin A (P. aeruginosa C0307; 0 µg mL^−1 imipenem, [83] 16 µg mL^−1): 64 µg/mL
MIC of kanamycin A (P. aeruginosa C0307; 0 µg mL^−1 imipenem, [83] 32 µg mL^−1): 64 µg/mL
MIC of kanamycin A (P. aeruginosa C0307; 0 µg mL^−1 imipenem, [83] 64 µg mL^−1): 64 µg/mL
MIC of kanamycin A (P. aeruginosa C0307; 0 µg mL^−1 imipenem, [83] 128 µg mL^−1): 32 µg/mL
MIC of kanamycin A (P. aeruginosa C0307; 0.05 µg mL^−1 imipenem, [83] 2 µg mL^−1): 64 µg/mL
MIC of kanamycin A (P. aeruginosa C0307; 0.05 µg mL^−1 imipenem, [83] 4 µg mL^−1): 64 µg/mL
MIC of kanamycin A (P. aeruginosa C0307; 0.05 µg mL^−1 imipenem, [83] 8 µg mL^−1): 64 µg/mL
MIC of kanamycin A (P. aeruginosa C0307; 0.05 µg mL^−1 imipenem, [83] 16 µg mL^−1): 64 µg/mL
MIC of kanamycin A (P. aeruginosa C0307; 0.05 µg mL^−1 imipenem, [83] 32 µg mL^−1): 64 µg/mL
MIC of kanamycin A (P. aeruginosa C0307; 0.05 µg mL^−1 imipenem, [83] 64 µg mL^−1): 64 µg/mL
MIC of kanamycin A (P. aeruginosa C0307; 0.05 µg mL^−1 imipenem, [83] 128 µg mL^−1): 32 µg/mL
checkerboard well reading (growth) (P. aeruginosa C0307; Supp. Figure 3 A, 83 1 µg.mL-1, kanamycin A 0 µg.mL-1): 1.117
checkerboard well reading (growth) (P. aeruginosa C0307; Supp. Figure 3 A, 83 1 µg.mL-1, kanamycin A 2 µg.mL-1): 1.340
checkerboard well reading (growth) (P. aeruginosa C0307; Supp. Figure 3 A, 83 1 µg.mL-1, kanamycin A 4 µg.mL-1): 1.454
checkerboard well reading (growth) (P. aeruginosa C0307; Supp. Figure 3 A, 83 1 µg.mL-1, kanamycin A 8 µg.mL-1): 1.268
checkerboard well reading (growth) (P. aeruginosa C0307; Supp. Figure 3 A, 83 16 µg.mL-1, kanamycin A 0 µg.mL-1): 1.272
checkerboard well reading (growth) (P. aeruginosa C0307; Supp. Figure 3 A, 83 16 µg.mL-1, kanamycin A 2 µg.mL-1): 1.771
checkerboard well reading (growth) (P. aeruginosa C0307; Supp. Figure 3 A, 83 16 µg.mL-1, kanamycin A 4 µg.mL-1): 1.508
checkerboard well reading (growth) (P. aeruginosa C0307; Supp. Figure 3 A, 83 16 µg.mL-1, kanamycin A 8 µg.mL-1): 1.668
checkerboard well reading (growth) (P. aeruginosa C0307; Supp. Figure 3 A, 83 16 µg.mL-1, kanamycin A 16 µg.mL-1): 1.123
checkerboard well reading (growth) (P. aeruginosa C0307; Supp. Figure 3 A, 83 16 µg.mL-1, kanamycin A 32 µg.mL-1): 1.123
checkerboard well reading (growth) (P. aeruginosa C0307; Supp. Figure 3 A, 83 16 µg.mL-1, kanamycin A 64 µg.mL-1): 0.184
checkerboard well reading (growth) (P. aeruginosa C0307; Supp. Figure 3 A, 83 16 µg.mL-1, kanamycin A 128 µg.mL-1): 0.041
checkerboard well reading (growth) (P. aeruginosa C0307; Supp. Figure 3 A, 83 32 µg.mL-1, kanamycin A 0 µg.mL-1): 1.376
checkerboard well reading (growth) (P. aeruginosa C0307; Supp. Figure 3 A, 83 32 µg.mL-1, kanamycin A 2 µg.mL-1): 1.667
checkerboard well reading (growth) (P. aeruginosa C0307; Supp. Figure 3 A, 83 32 µg.mL-1, kanamycin A 4 µg.mL-1): 1.435
checkerboard well reading (growth) (P. aeruginosa C0307; Supp. Figure 3 A, 83 32 µg.mL-1, kanamycin A 8 µg.mL-1): 1.524
checkerboard well reading (growth) (P. aeruginosa C0307; Supp. Figure 3 A, 83 32 µg.mL-1, kanamycin A 16 µg.mL-1): 1.359
checkerboard well reading (growth) (P. aeruginosa C0307; Supp. Figure 3 A, 83 32 µg.mL-1, kanamycin A 32 µg.mL-1): 1.130
checkerboard well reading (growth) (P. aeruginosa C0307; Supp. Figure 3 A, 83 32 µg.mL-1, kanamycin A 64 µg.mL-1): 0.118
checkerboard well reading (growth) (P. aeruginosa C0307; Supp. Figure 3 A, 83 32 µg.mL-1, kanamycin A 128 µg.mL-1): 0.042
checkerboard well reading (growth) (P. aeruginosa C0307; Supp. Figure 3 A, 83 64 µg.mL-1, kanamycin A 0 µg.mL-1): 1.213
checkerboard well reading (growth) (P. aeruginosa C0307; Supp. Figure 3 A, 83 64 µg.mL-1, kanamycin A 2 µg.mL-1): 1.320
checkerboard well reading (growth) (P. aeruginosa C0307; Supp. Figure 3 A, 83 64 µg.mL-1, kanamycin A 4 µg.mL-1): 1.451
checkerboard well reading (growth) (P. aeruginosa C0307; Supp. Figure 3 A, 83 64 µg.mL-1, kanamycin A 8 µg.mL-1): 1.433
checkerboard well reading (growth) (P. aeruginosa C0307; Supp. Figure 3 A, 83 64 µg.mL-1, kanamycin A 16 µg.mL-1): 1.312
checkerboard well reading (growth) (P. aeruginosa C0307; Supp. Figure 3 A, 83 64 µg.mL-1, kanamycin A 32 µg.mL-1): 1.055
checkerboard well reading (growth) (P. aeruginosa C0307; Supp. Figure 3 A, 83 64 µg.mL-1, kanamycin A 64 µg.mL-1): 0.042
checkerboard well reading (growth) (P. aeruginosa C0307; Supp. Figure 3 A, 83 64 µg.mL-1, kanamycin A 128 µg.mL-1): 0.044
checkerboard well reading (growth) (P. aeruginosa C0307; Supp. Figure 3 A, 83 128 µg.mL-1, kanamycin A 0 µg.mL-1): 1.324
checkerboard well reading (growth) (P. aeruginosa C0307; Supp. Figure 3 A, 83 128 µg.mL-1, kanamycin A 2 µg.mL-1): 1.439
checkerboard well reading (growth) (P. aeruginosa C0307; Supp. Figure 3 A, 83 128 µg.mL-1, kanamycin A 4 µg.mL-1): 1.308
checkerboard well reading (growth) (P. aeruginosa C0307; Supp. Figure 3 A, 83 128 µg.mL-1, kanamycin A 8 µg.mL-1): 1.307
checkerboard well reading (growth) (P. aeruginosa C0307; Supp. Figure 3 A, 83 128 µg.mL-1, kanamycin A 16 µg.mL-1): 1.218
checkerboard well reading (growth) (P. aeruginosa C0307; Supp. Figure 3 A, 83 128 µg.mL-1, kanamycin A 32 µg.mL-1): 0.227
checkerboard well reading (growth) (P. aeruginosa C0307; Supp. Figure 3 A, 83 128 µg.mL-1, kanamycin A 64 µg.mL-1): 0.039
checkerboard well reading (growth) (P. aeruginosa C0307; Supp. Figure 3 A, 83 128 µg.mL-1, kanamycin A 128 µg.mL-1): 0.039
checkerboard well reading (growth) (P. aeruginosa C0307; Supp. Figure 3 B, 83 1 µg.mL-1, kanamycin A 0 µg.mL-1): 1.239
checkerboard well reading (growth) (P. aeruginosa C0307; Supp. Figure 3 B, 83 1 µg.mL-1, kanamycin A 2 µg.mL-1): 1.239
checkerboard well reading (growth) (P. aeruginosa C0307; Supp. Figure 3 B, 83 1 µg.mL-1, kanamycin A 4 µg.mL-1): 1.159
checkerboard well reading (growth) (P. aeruginosa C0307; Supp. Figure 3 B, 83 1 µg.mL-1, kanamycin A 8 µg.mL-1): 1.192
checkerboard well reading (growth) (P. aeruginosa C0307; Supp. Figure 3 B, 83 1 µg.mL-1, kanamycin A 16 µg.mL-1): 1.219
checkerboard well reading (growth) (P. aeruginosa C0307; Supp. Figure 3 B, 83 1 µg.mL-1, kanamycin A 32 µg.mL-1): 1.181
checkerboard well reading (growth) (P. aeruginosa C0307; Supp. Figure 3 B, 83 1 µg.mL-1, kanamycin A 64 µg.mL-1): 0.113
checkerboard well reading (growth) (P. aeruginosa C0307; Supp. Figure 3 B, 83 1 µg.mL-1, kanamycin A 128 µg.mL-1): 0.042
checkerboard well reading (growth) (P. aeruginosa C0307; Supp. Figure 3 B, 83 2 µg.mL-1, kanamycin A 0 µg.mL-1): 1.144
